Where a SMILES comes first, the peptide text is derived from it. [ ]: non-standard residue; d: D form. The star is where a group is joined. ξ: configuration not given here. Cbz = O=C(OCc1ccccc1)*; ξP = O=C(O)C1CCCN1
Columns and labels:
[1] = Solubility (physico-chemical properties); assay type: physicochemical; settings: for Solubility: Table 3
[2] = target: T1, rabbit brain PED (Oryctolagus cuniculus, UniProt A0A5F9CCV6); test: Prolyl endopeptidase inhibition assay (partially purified rabbit brain enzyme, Z-Gly-Pro-pNA substrate); assay type: biochemical; settings: pre-incubated 30 minutes at 30° C., pH 7.0
T1 construct: rabbit brain PED partially purified from the whole brain homogenate; from tissue; host or cells: rabbit whole brain homogenate
Description: (§1) Two enzymes were used: Flavobacterial enzyme for the screening and the isolation study and partially purified rabbit brain enzyme for in vitro evaluation. Ten μl of Flavobacterium meningosepticum PED,^10, 11 (Seikagaku Kogyo Co. Ltd., 0.5 unit/ml in 50 mM phosphate buffer, pH 7.0) or rabbit brain PED partially purified from the whole brain homogenate^12, 13.5 μl of a test sample and 86.5 μl of 100 mM phosphate buffer (pH 7.0) were mixed in a well of a 96-well microplate and pre-incubated for about 30 minutes at about 30° C. The reaction was started by addition of 25 μl of 2 mM carbobenzyloxyglycyl-prolyl-p-nitroanilide (Z-Gly-Pro-pNA) in 40% dioxane-100 mM phosphate buffer, pH 7.0. After about 5 minute-incubation at about 30° C., the amount of released p-nitroaniline was determined colorimetrically with a microplate autoreader (Titertek Multiskan® MMC) at 414 nm. For control, the reaction buffer was added to the reaction mixture instead of the test sample. The percentage of inhibition was calculated by the following equation: [formula]

[3] = target: T2, Flavobacterium meningosepticum PED (Elizabethkingia meningoseptica, UniProt P27028); test: Prolyl endopeptidase inhibition assay (Flavobacterium enzyme, Z-Gly-Pro-pNA substrate); assay type: biochemical; settings: pre-incubated 30 minutes at 30° C., pH 7.0
T2 construct: purchased Seikagaku Kogyo Co. Ltd
Description: as §1

T2 sequence (P27028 21-705): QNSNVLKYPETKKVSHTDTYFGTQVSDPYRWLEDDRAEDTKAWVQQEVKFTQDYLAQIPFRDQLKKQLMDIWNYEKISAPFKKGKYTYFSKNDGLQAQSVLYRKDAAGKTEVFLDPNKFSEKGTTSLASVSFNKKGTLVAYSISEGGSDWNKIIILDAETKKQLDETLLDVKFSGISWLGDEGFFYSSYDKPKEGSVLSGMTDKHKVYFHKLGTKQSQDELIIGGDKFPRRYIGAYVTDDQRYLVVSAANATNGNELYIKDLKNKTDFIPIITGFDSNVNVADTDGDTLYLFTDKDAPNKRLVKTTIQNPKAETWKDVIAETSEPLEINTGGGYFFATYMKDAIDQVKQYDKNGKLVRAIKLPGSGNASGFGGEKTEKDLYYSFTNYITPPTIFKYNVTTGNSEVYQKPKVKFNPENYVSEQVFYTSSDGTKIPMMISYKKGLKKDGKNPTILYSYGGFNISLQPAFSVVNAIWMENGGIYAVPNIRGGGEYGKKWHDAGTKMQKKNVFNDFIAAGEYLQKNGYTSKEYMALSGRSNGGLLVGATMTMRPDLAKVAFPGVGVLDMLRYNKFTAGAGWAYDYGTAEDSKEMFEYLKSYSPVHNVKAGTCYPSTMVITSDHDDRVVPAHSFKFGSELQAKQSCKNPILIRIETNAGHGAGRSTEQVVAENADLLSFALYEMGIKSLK
T1 sequence (A0A5F9CCV6 1-707): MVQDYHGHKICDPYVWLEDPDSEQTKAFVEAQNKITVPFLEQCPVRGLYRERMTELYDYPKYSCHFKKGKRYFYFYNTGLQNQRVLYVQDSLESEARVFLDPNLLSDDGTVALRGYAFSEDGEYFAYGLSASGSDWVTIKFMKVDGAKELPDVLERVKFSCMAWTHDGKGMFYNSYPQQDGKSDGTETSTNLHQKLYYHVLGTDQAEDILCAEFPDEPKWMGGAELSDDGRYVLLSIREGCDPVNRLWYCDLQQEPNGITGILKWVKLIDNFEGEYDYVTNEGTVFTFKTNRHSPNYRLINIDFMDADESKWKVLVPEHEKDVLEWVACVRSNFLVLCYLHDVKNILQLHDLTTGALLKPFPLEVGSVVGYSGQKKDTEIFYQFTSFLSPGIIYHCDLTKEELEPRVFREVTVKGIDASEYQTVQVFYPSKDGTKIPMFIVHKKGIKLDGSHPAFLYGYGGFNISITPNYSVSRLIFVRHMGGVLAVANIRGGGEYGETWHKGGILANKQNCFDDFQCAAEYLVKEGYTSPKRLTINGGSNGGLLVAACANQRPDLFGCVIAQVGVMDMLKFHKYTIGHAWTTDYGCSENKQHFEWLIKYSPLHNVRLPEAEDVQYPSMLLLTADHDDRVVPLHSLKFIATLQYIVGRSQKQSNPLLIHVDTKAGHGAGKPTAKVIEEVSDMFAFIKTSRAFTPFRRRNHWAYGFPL

Solubility [1]	Solubility in dimethyl sulfoxide [1]	Solubility in other organic solvents and water [1]	PED inhibitory activity IC50, Rabbit brain [2] [ng/mL]	PED inhibitory activity IC50, Flavobacterium [3] [ng/mL]	SMILES
Soluble in DMSO	soluble	practically insoluble	85	3.7	CC(C)CC/C=C/C(=O)NC1CCCNC(=O)C(CC(C)C)NC(=O)C(=O)C(C)NC1=O (stereo not drawn) [BU-4164E A]
Soluble in DMSO	soluble	practically insoluble	31	2.1	CCC(C)CC/C=C/C(=O)NC1CCCNC(=O)C(CC(C)C)NC(=O)C(=O)C(C)NC1=O (stereo not drawn) [BU-4164E B]
–	–	–	16	3.6	CC(C)[C@H](NC(=O)OCc1ccccc1)C(=O)N1CCCC1C=O (stereo partly drawn) [Z-Val-prolinal, reference compound] (Cbz-Val-[ξP]-aldehyde)
